Broadly, the melting point is the temperature, or range, at which the solid turns liquid.

On to `CNCc1cc(Oc2ccc3c(C(=O)Nc4cccc(C(F)(F)F)c4)cccc3c2)ncn1` [Example 54, 6-(6-Methylaminomethyl-pyrimidin-4-yloxy)-naphthalene-1-carboxylic acid (3-trifluoromethyl-phenyl)-amide], for which the melting point lay within 141 to 143 °C.

Turning to `Nc1cc(Oc2ccc3c(C(=O)Nc4cccc(C(F)(F)F)c4)cccc3c2)ncn1` [Example 26, 6-(6-Amino-pyrimidin-4-yloxy)-naphthalene-1-carboxylic acid (3-trifluoromethyl-phenyl)-amide], the melting point lay within 243 to 244 °C. In turn, `CN(C)CCNC(=O)c1cc(Oc2ccc3c(C(=O)Nc4cccc(C(F)(F)F)c4)cccc3c2)ccn1` [Example 67, 4-[5-(3-Trifluoromethyl-phenylcarbamoyl)-naphthalen-2-yloxy]-pyridine-2-carboxylic acid (2-dimethylamino-ethyl)-amide] gave a melting point of 80 to 82 °C.

`Nc1cc(Oc2ccc3c(C(=O)Nc4ccc(F)c(C(F)(F)F)c4)cccc3c2)ncn1` [Example 25, 6-(6-Amino-pyrimidin-4-yloxy)-naphthalene-1-carboxylic acid (4-fluoro-3-trifluoromethyl-phenyl)-amide] yielded a melting point of 224 to 225 °C.

Take `CNc1cc(Oc2ccc3c(c2)OCCN3C(=O)Nc2cccc(C(F)(F)F)c2)ncn1` [Example 9, 7-(6-Methylamino-pyrimidin-4-yloxy)-2,3-dihydro-benzo[1,4]oxazine-4-carboxylic acid (3-trifluoromethyl-phenyl)-amide]: the melting point turned out to be 180 °C.

Regarding `CNc1cc(Oc2ccc3c(C(=O)Nc4cccc(C(F)(F)F)c4)cncc3c2)ncn1` [Example 96, 7-(6-Methylamino-pyrimidin-4-yloxy)-isoquinoline-4-carboxylic acid (3-trifluoromethyl-phenyl)-amide], the melting point lay in the range of 205 to 208 °C. With `CC(C)c1ccc(-n2nc(C(C)(C)C)cc2NC(=O)c2cncc3cc(Oc4cc(N)ncn4)ccc23)cc1` [Example 93, 7-(6-Amino-pyrimidin-4-yloxy)-isoquinoline-4-carboxylic acid [5-tert-butyl-2-(4-isopropyl-phenyl)-2H-pyrazol-3-yl]-amide] the figure was 131 to 133 °C; with `COC(=O)Nc1cc(Oc2ccc3c(C(=O)Nc4cccc(C(F)(F)F)c4)cccc3c2)ccn1` [Example 69, {4-[5-(3-Trifluoromethyl-phenylcarbamoyl)-naphthalen-2-yloxy]-pyridin-2-yl}-carbamic acid methyl ester], 230 to 232 °C. The value for `COC(=O)Nc1nccc(Oc2ccc3c(C(=O)Nc4cccc(C(F)(F)F)c4)cccc3c2)n1` [Example 19, 6-(2-Methoxycarbonylamino-pyrimidin-4-yloxy)-naphthalene-1-carboxylic acid (3-trifluoromethyl-phenyl)-amide] was 199 to 200 °C. The value for `CC(=O)Nc1nccc(Oc2ccc3c(C(=O)Nc4cccc(C(F)(F)F)c4)cccc3c2)n1` [Example 18, 6-(2-Acetylamino-pyrimidin-4-yloxy)-naphthalene-1-carboxylic acid (3-trifluoromethyl-phenyl)-amide] was 216 to 217 °C; that for `N#Cc1cc(Oc2ccc3c(C(=O)Nc4cccc(C(F)(F)F)c4)cccc3c2)ncn1` [Example 43, 6-(6-Cyano-pyrimidin-4-yloxy)-naphthalene-1-carboxylic acid (3-trifluoromethyl-phenyl)-amide] was 167 °C. As for `Nc1cc(Sc2ccc3c(C(=O)Nc4ccc(F)c(C(F)(F)F)c4)cccc3c2)ncn1` [Example 57, 6-(6-Amino-pyrimidin-4-ylsulfanyl)-naphthalene-1-carboxylic acid (4-fluoro-3-trifluoromethyl-phenyl)-amide], the melting point came out at 221 °C.

For `Nc1cc(Sc2ccc3c(C(=O)Nc4cccc(C(F)(F)F)c4)cccc3c2)ncn1` [Example 58, 6-(6-Amino-pyrimidin-4-ylsulfanyl)-naphthalene-1-carboxylic acid (3-trifluoromethyl-phenyl)-amide], the melting point is 205 °C. Compound `CCCCOC(=O)c1cc(Oc2ccc3c(C(=O)Nc4cccc(C(F)(F)F)c4)cccc3c2)ccn1` [Example 64, 4-[5-(3-Trifluoromethyl-phenylcarbamoyl)-naphthalen-2-yloxy]-pyridine-2-carboxylic acid butyl ester] yielded a melting point of 128 to 130 °C. In turn, `CC(C)(C)c1cc(NC(=O)c2cncc3cc(Oc4cc(N)ncn4)ccc23)n(-c2ccc(F)cc2)n1` [Example 94, 7-(6-Amino-pyrimidin-4-yloxy)-isoquinoline-4-carboxylic acid [5-tert-butyl-2-(4-fluoro-phenyl)-2H-pyrazol-3-yl]-amide] gave a melting point of 124 to 126 °C.

In the case of `O=C(Nc1cccc(C(F)(F)F)c1)c1cccc2cc(Oc3cc(CCl)ncn3)ccc12` [Example 53, 6-(6-Chloromethyl-pyrimidin-4-yloxy)-naphthalene-1-carboxylic acid (3-trifluoromethyl-phenyl)-amide], the melting point lay in the range of 178 to 181 °C. With `Nc1nccc(CCc2ccc3c(C(=O)Nc4cccc(C(F)(F)F)c4)cccc3c2)n1` [Example 70, 6-[2-(2-Amino-pyrimidin-4-yl)-ethyl]-naphthalene-1-carboxylic acid (3-trifluoromethyl-phenyl)-amide] the figure was 225 to 227 °C; with `Nc1cc(Oc2ccc3c(C(=O)Nc4cccc(C(F)(F)F)c4)cccc3c2)ccn1` [Example 68, 6-(2-Amino-pyridin-4-yloxy)-naphthalene-1-carboxylic acid (3-trifluoromethyl-phenyl)-amide], 222 to 224 °C. The value for `CNc1cc(Oc2ccc3c(c2)OCCN3C(=O)Nc2ccc(C)c(C(F)(F)F)c2)ncn1` [Example 8, 7-(6-Methylamino-pyrimidin-4-yloxy)-2,3-dihydro-benzo[1,4]oxazine-4-carboxylic acid (4-methyl-3-trifluoromethyl-phenyl)-amide] was 180 to 182 °C; that for `Nc1nc(Cl)cc(Oc2ccc3c(C(=O)Nc4cccc(C(F)(F)F)c4)cccc3c2)n1` [Example 13, 6-(2-Amino-6-chloro-pyrimidin-4-yloxy)-naphthalene-1-carboxylic acid (3-trifluoromethyl-phenyl)-amide] was 234 to 236 °C. With `CC(C)NC(=O)c1cc(Oc2ccc3c(C(=O)Nc4cccc(C(F)(F)F)c4)cccc3c2)ncn1` [Example 51, 6-[5-(3-Trifluoromethyl-phenylcarbamoyl)-naphthalen-2-yloxy]-pyrimidine-4-carboxylic acid isopropylamide] the figure was 205 to 208 °C; with `CNc1cc(Oc2ccc3c(C(=O)Nc4ccc(F)c(C(F)(F)F)c4)cncc3c2)ncn1` [Example 95, 7-(6-Methylamino-pyrimidin-4-yloxy)-isoquinoline-4-carboxylic acid (4-fluoro-3-trifluoromethyl-phenyl)-amide], 255 to 257 °C. Consider `CNC(=O)c1cc(Oc2ccc3c(C(=O)Nc4cccc(C(F)(F)F)c4)cccc3c2)ccn1` [Example 65, 4-[5-(3-Trifluoromethyl-phenylcarbamoyl)-naphthalen-2-yloxy]-pyridine-2-carboxylic acid methylamide], for which the melting point was in the range of 175 to 177 °C. As to `Nc1cc(S(=O)(=O)c2ccc3c(C(=O)Nc4cccc(C(F)(F)F)c4)cccc3c2)ncn1` [Example 60, 6-(6-Amino-pyrimidine-4-sulfonyl)-naphthalene-1-carboxylic acid (3-trifluoromethyl-phenyl)-amide], the melting point lay within 229 to 231 °C. With `Nc1nccc(Oc2ccc3c(c2)OCCN3C(=O)Nc2cccc(C(F)(F)F)c2)n1` [Example 10, 7-(2-Amino-pyrimidin-4-yloxy)-2,3-dihydro-benzo[1,4]oxazine-4-carboxylic acid (3-trifluoromethyl-phenyl)-amide] the figure was 161 to 163 °C; with `CN(C)Cc1cc(Oc2ccc3c(C(=O)Nc4cccc(C(F)(F)F)c4)cccc3c2)ncn1` [Example 55, 6-(6-Dimethylaminomethyl-pyrimidin-4-yloxy)-naphthalene-1-carboxylic acid (3-trifluoromethyl-phenyl)-amide], 180 to 181 °C; with `CNc1cc(Oc2ccc3c(C(=O)Nc4ccc(N5CCOCC5)c(C(F)(F)F)c4)cccc3c2)ncn1` [Example 40, 6-(6-Methylamino-pyrimidin-4-yloxy)-naphthalene-1-carboxylic acid (4-morpholin-4-yl-3-trifluoromethyl-phenyl)-amide], 156 to 157 °C. Consider `Nc1cc(Sc2ccc3c(C(=O)Nc4cccc(OC(F)(F)F)c4)cccc3c2)ncn1` [Example 61, 6-(6-Amino-pyrimidin-4-ylsulfanyl)-naphthalene-1-carboxylic acid (3-trifluoromethoxy-phenyl)-amide], for which the melting point lay in the range of 197 to 199 °C. The value for `NC(=O)c1cc(Oc2ccc3c(C(=O)Nc4cccc(C(F)(F)F)c4)cccc3c2)ccn1` [Example 66, 4-[5-(3-Trifluoromethyl-phenylcarbamoyl)-naphthalen-2-yloxy]-pyridine-2-carboxylic acid amide] was 117 to 120 °C; that for `Nc1cc(C#Cc2ccc3c(C(=O)Nc4cccc(C(F)(F)F)c4)cccc3c2)ncn1` [Example 71, 6-(6-Amino-pyrimidin-4-ylethynyl)-naphthalene-1-carboxylic acid (3-trifluoromethyl-phenyl)-amide] was 217 to 220 °C.

The record behind these values is patent US8026247B2, “Bicyclic amides as kinase inhibitors” (Novartis AG, priority 2004, dated 2011).
